Measured values as given in US9695155B2, “Herbicidal substituted pyrimidinyloxy benzene compounds” (E. I. DU PONT DE NEMOURS AND COMPANY, priority 2013, dated 2017).

How the values were obtained:
barnyardgrass [1] = test: Test A preemergence; type: in vivo, Echinochloa crus-galli; conditions: for Barnyardgrass plant response rating: 500 g ai/ha
How it was run: (§1)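 Visual injury scored 0–100 (100 = complete control) against untreated controls about 10 days after treatment in a greenhouse. Test chemicals, formulated with surfactant in non-phytotoxic solvent, were sprayed on soil preemergence or on 2-10 cm, one- to two-leaf plants postemergence.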

large (Lg) crabgrass [2] = test: Test A preemergence; type: in vivo, Digitaria sanguinalis; conditions: for Crabgrass, Large plant response rating: 500 g ai/ha
How it was run: as §1

giant foxtail [3] = test: Test A preemergence; type: in vivo, Setaria faberii; conditions: for Foxtail, Giant plant response rating: 500 g ai/ha
How it was run: as §1

morningglory [4] = test: Test A preemergence; type: in vivo, Ipomoea spp.; conditions: for Morningglory plant response rating: 500 g ai/ha
How it was run: as §1

pigweed [5] = test: Test A preemergence; type: in vivo, Amaranthus retroflexus; conditions: for Pigweed plant response rating: 500 g ai/ha
How it was run: as §1

velvetleaf [6] = test: Test A preemergence; type: in vivo, Abutilon theophrasti; conditions: for Velvetleaf plant response rating: 500 g ai/ha
How it was run: as §1

wheat [7] = test: Test A preemergence; type: in vivo, Triticum aestivum; conditions: for Wheat plant response rating: 500 g ai/ha
How it was run: as §1

corn [8] = test: Test A preemergence; type: in vivo, Zea mays; conditions: for Corn plant response rating: 500 g ai/ha
How it was run: as §1

barnyardgrass [9] = test: Test A postemergence; type: in vivo, Echinochloa crus-galli
How it was run: as §1

large (Lg) crabgrass [10] = test: Test A postemergence; type: in vivo, Digitaria sanguinalis
How it was run: as §1

giant foxtail [11] = test: Test A postemergence; type: in vivo, Setaria faberii
How it was run: as §1

morningglory [12] = test: Test A postemergence; type: in vivo, Ipomoea spp.
How it was run: as §1

pigweed [13] = test: Test A postemergence; type: in vivo, Amaranthus retroflexus
How it was run: as §1

velvetleaf [14] = test: Test A postemergence; type: in vivo, Abutilon theophrasti
How it was run: as §1

wheat [15] = test: Test A postemergence; type: in vivo, Triticum aestivum
How it was run: as §1

corn [16] = test: Test A postemergence; type: in vivo, Zea mays
How it was run: as §1

rice = test: Test B flooded paddy test; type: in vivo, Oryza sativa; conditions: Flood, 250 g ai/ha; 0 to 100 scale where 0 is no effect and 100 is complete control
How it was run: (§2)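 Seedlings are raised to two leaves, flooded to a depth of 3 cm and dosed by adding the compound to the floodwater. Water level is kept constant, and plants are scored visually versus controls 13–15 days later (0 = no effect, 100 = complete control).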

sedge, umbrella = test: Test B flooded paddy test; type: in vivo, Cyperus difformis; conditions: Flood, 250 g ai/ha; 0 to 100 scale where 0 is no effect and 100 is complete control
How it was run: as §2

Heteranthera limosa = test: Test B flooded paddy test; type: in vivo; conditions: Flood, 250 g ai/ha; 0 to 100 scale where 0 is no effect and 100 is complete control
How it was run: as §2

barnyardgrass [17] = test: Test B flooded paddy test; type: in vivo, Echinochloa crus-galli; conditions: Flood, 250 g ai/ha; 0 to 100 scale where 0 is no effect and 100 is complete control
How it was run: as §2

[18] = 0 to 100 scale where 0 is no effect and 100 is complete control
[19] = 125 g ai/ha, 0 to 100 scale where 0 is no effect and 100 is complete control
[20] = 500 g ai/ha, 0 to 100 scale where 0 is no effect and 100 is complete control
[21] = 0 to 100 scale, 0 no effect, 100 complete control, approx. 10 days
[22] = 500 g ai/ha, 0 to 100 scale, 0 no effect, 100 complete control
[23] = 125 g ai/ha, 0 to 100 scale, 0 no effect, 100 complete control

FC(F)c1cccc(Oc2ncc(Br)cn2)c1-n1cc(Cl)cn1 [Compound 210]
10: Barnyardgrass plant response rating (0 to 100 scale, 0 is no effect, 100 is complete control) (barnyardgrass [1]; 125 g ai/ha) | Corn plant response rating (corn [16]; [19])
75: Plant response rating, Ducksalad (Heteranthera limosa)
15: Plant response rating, Rice (rice)
20: Velvetleaf plant response rating (0 to 100 scale) (velvetleaf [6]; 125 g ai/ha) | Barnyardgrass plant response rating (barnyardgrass [9]; [19]) | Morningglory plant response rating (morningglory [12]; [19])
40: Plant response rating, Barnyardgrass (barnyardgrass [9]; [20]) | Crabgrass, Large plant response rating (large (Lg) crabgrass [10]; [19])
0: Morningglory plant response rating (0 to 100 scale) (morningglory [4]; 125 g ai/ha) | Morningglory plant response rating (morningglory [4]; [18]) | Wheat plant response rating (0 to 100 scale) (wheat [7]; 125 g ai/ha) | Wheat plant response rating (wheat [7]; [18]) | Corn plant response rating (0 to 100 scale) (corn [8]; 125 g ai/ha) | Corn plant response rating (corn [8]; [18]) | Wheat plant response rating (wheat [15]; [19]) | Plant response rating, Wheat (wheat [15]; [20]) | Plant response rating, Barnyardgrass (barnyardgrass [17])
80: Plant response rating, Velvetleaf (velvetleaf [14]; [20])
70: Barnyardgrass plant response rating (barnyardgrass [1]; [18]) | Plant response rating, Crabgrass, Large (large (Lg) crabgrass [10]; [20])
100: Crabgrass, Large plant response rating (0 to 100 scale) (large (Lg) crabgrass [2]; 125 g ai/ha) | Crabgrass, Large plant response rating (large (Lg) crabgrass [2]; [18]) | Foxtail, Giant plant response rating (0 to 100 scale) (giant foxtail [3]; 125 g ai/ha) | Foxtail, Giant plant response rating (giant foxtail [3]; [18]) | Pigweed plant response rating (0 to 100 scale) (pigweed [5]; 125 g ai/ha) | Pigweed plant response rating (pigweed [5]; [18]) | Pigweed plant response rating (pigweed [13]; [19]) | Plant response rating, Pigweed (pigweed [13]; [20])
60: Velvetleaf plant response rating (velvetleaf [6]; [18]) | Plant response rating, Foxtail, Giant (giant foxtail [11]; [20]) | Velvetleaf plant response rating (velvetleaf [14]; [19]) | Plant response rating, Sedge, Umbrella (sedge, umbrella)
30: Foxtail, Giant plant response rating (giant foxtail [11]; [19]) | Plant response rating, Morningglory (morningglory [12]; [20]) | Plant response rating, Corn (corn [16]; [20])

CC=Cc1cnn(-c2ccccc2Oc2ncc(Cl)cn2)c1 [Compound 27]
40: Foxtail, Giant plant response rating (giant foxtail [3]; [21])
20: Barnyardgrass plant response rating (barnyardgrass [1]; [21]) | Pigweed plant response rating (pigweed [5]; [21]) | Plant response rating, Crabgrass, Large (large (Lg) crabgrass [10]; [19])
50: Crabgrass, Large plant response rating (large (Lg) crabgrass [2]; [21]) | Plant response rating, Morningglory (morningglory [12]; [22]) | Plant response rating, Velvetleaf (velvetleaf [14]; [19])
10: Plant response rating, Pigweed (pigweed [5]; [19]) | Velvetleaf plant response rating (velvetleaf [6]; [21]) | Plant response rating, Barnyardgrass (barnyardgrass [9]; [22]) | Plant response rating, Morningglory (morningglory [12]; [19]) | Plant response rating, Corn (corn [16]; [22])
70: Plant response rating, Pigweed (pigweed [13]; [22]) | Plant response rating, Velvetleaf (velvetleaf [14]; [22])
60: Plant response rating, Crabgrass, Large (large (Lg) crabgrass [10]; [22]) | Plant response rating, Pigweed (pigweed [13]; [19])
75: Plant response rating, Sedge, Umbrella (sedge, umbrella) | Plant response rating, Ducksalad (Heteranthera limosa)
30: Plant response rating, Foxtail, Giant (giant foxtail [11]; [22])
0: Plant response rating, Barnyardgrass (barnyardgrass [1]; [19]) | Plant response rating, Crabgrass, Large (large (Lg) crabgrass [2]; [19]) | Plant response rating, Foxtail, Giant (giant foxtail [3]; [19]) | Plant response rating, Morningglory (morningglory [4]; [19]) | Morningglory plant response rating (morningglory [4]; [21]) | Plant response rating, Velvetleaf (velvetleaf [6]; [19]) | Plant response rating, Wheat (wheat [7]; [19]) | Wheat plant response rating (wheat [7]; [21]) | Plant response rating, Corn (corn [8]; [19]) | Corn plant response rating (corn [8]; [21]) | Plant response rating, Barnyardgrass (barnyardgrass [9]; [19]) | Plant response rating, Foxtail, Giant (giant foxtail [11]; [19]) | Plant response rating, Wheat (wheat [15]; [19]) | Plant response rating, Wheat (wheat [15]; [22]) | Plant response rating, Corn (corn [16]; [19]) | Plant response rating, Rice (rice) | Plant response rating, Barnyardgrass (barnyardgrass [17])

CCOC(=O)c1cnn(-c2c(C#N)cccc2Oc2ncc(Br)cn2)c1 [Compound 294]
60: Crabgrass, Large plant response rating (large (Lg) crabgrass [2]; [18]) | Plant response rating, Barnyardgrass (barnyardgrass [9]; [20]) | Plant response rating, Pigweed (pigweed [13]; [23]) | Plant response rating, Velvetleaf (velvetleaf [14]; [20])
90: Plant response rating, Pigweed (pigweed [13]; [20])
40: Plant response rating, Wheat (wheat [15]; [20]) | Plant response rating, Corn (corn [16]; [20])
10: Velvetleaf plant response rating (0 to 100 scale) (velvetleaf [6]; 125 g ai/ha) | Plant response rating, Foxtail, Giant (giant foxtail [11]; [23])
100: Pigweed plant response rating (0 to 100 scale) (pigweed [5]; 125 g ai/ha) | Pigweed plant response rating (pigweed [5]; [18])
30: Crabgrass, Large plant response rating (0 to 100 scale) (large (Lg) crabgrass [2]; 125 g ai/ha) | Foxtail, Giant plant response rating (0 to 100 scale) (giant foxtail [3]; 125 g ai/ha) | Plant response rating, Morningglory (morningglory [12]; [20])
50: Plant response rating, Crabgrass, Large (large (Lg) crabgrass [10]; [20]) | Plant response rating, Foxtail, Giant (giant foxtail [11]; [20]) | Plant response rating, Velvetleaf (velvetleaf [14]; [23])
70: Foxtail, Giant plant response rating (giant foxtail [3]; [18]) | Velvetleaf plant response rating (velvetleaf [6]; [18])
0: Barnyardgrass plant response rating (0 to 100 scale, 0 is no effect, 100 is complete control) (barnyardgrass [1]; 125 g ai/ha) | Morningglory plant response rating (0 to 100 scale) (morningglory [4]; 125 g ai/ha) | Morningglory plant response rating (morningglory [4]; [18]) | Wheat plant response rating (0 to 100 scale) (wheat [7]; 125 g ai/ha) | Wheat plant response rating (wheat [7]; [18]) | Corn plant response rating (0 to 100 scale) (corn [8]; 125 g ai/ha) | Corn plant response rating (corn [8]; [18]) | Plant response rating, Crabgrass, Large (large (Lg) crabgrass [10]; [23]) | Plant response rating, Wheat (wheat [15]; [23]) | Plant response rating, Corn (corn [16]; [23]) | Plant response rating, Rice (rice) | Plant response rating, Sedge, Umbrella (sedge, umbrella) | Plant response rating, Ducksalad (Heteranthera limosa) | Plant response rating, Barnyardgrass (barnyardgrass [17])
20: Barnyardgrass plant response rating (barnyardgrass [1]; [18]) | Plant response rating, Barnyardgrass (barnyardgrass [9]; [23]) | Plant response rating, Morningglory (morningglory [12]; [23])
